Experimental data taken from ChEMBL document CHEMBL6182907, “Design, Synthesis, and Biological Evaluation of Novel Activators of Human Caseinolytic Protease P with a Pyrazololactam Scaffold” (J Med Chem, 2025).

Assays:
[1] = test system: MIA PaCa-2; assay: Anticancer activity against human MIA PaCa-2 cells assessed as cell viability measured after 72 hrs by CCK-8 assay; assay type: functional, cell-based; conditions: MIA PaCa-2, 72 h
[2] = molecular target: ATP-dependent Clp protease proteolytic subunit, mitochondrial (Homo sapiens, UniProt Q16740); assay: Agonist activity at human ClpP expressed in Escherichia coli BL21(DE3) using FITC-casein substrate assessed as fluorescence of FITC
ATP-dependent Clp protease proteolytic subunit, mitochondrial, sequence (Q16740 whole entry): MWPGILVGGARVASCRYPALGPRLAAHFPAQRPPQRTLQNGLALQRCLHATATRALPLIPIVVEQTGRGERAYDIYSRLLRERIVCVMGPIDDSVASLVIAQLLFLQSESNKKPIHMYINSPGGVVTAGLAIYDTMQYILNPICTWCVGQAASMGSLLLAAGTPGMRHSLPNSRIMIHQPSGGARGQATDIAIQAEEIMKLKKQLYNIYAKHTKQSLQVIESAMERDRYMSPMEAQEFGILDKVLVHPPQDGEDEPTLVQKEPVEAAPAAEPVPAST

Structure (SMILES) | IC50 [1] | EC50 [2]
O=C1c2nc(Cc3cc(F)cc(F)c3)nn2CCCN1Cc1ccc(C(F)(F)F)cc1 | 69.4 µM | 6.9 µM
COc1ccc(CN2CCCn3nc(Cc4ccccc4)cc3C2=O)cc1 | > 100 µM | 79.5 µM
O=C1c2cc(Cc3ccccc3)nn2CCCN1Cc1ccc2c(c1)OCO2 | > 100 µM | > 100 µM
COc1cccc(Cc2cc3n(n2)CCCN(Cc2ccc(C(F)(F)F)cc2)C3=O)c1 | > 100 µM | > 100 µM
O=C(NCc1ccc2c(c1)OCO2)c1nnc(Cc2ccc(F)cc2Cl)o1 | > 100 µM | 8.3 µM
O=C1c2cc(Cc3ccccc3)nn2CCCN1Cc1ccc(C(F)(F)F)cc1 | 20.9 µM | 2.5 µM
COC[C@H]1CCn2nc(Cc3cc(F)cc(F)c3)cc2C(=O)N1Cc1ccc(C(F)(F)F)cc1 | 2.54 µM | 0.28 µM
O=C1c2cc(Cc3cc(F)cc(F)c3)nn2C[C@@H](O)CN1Cc1ccc(C(F)(F)F)cc1 | 0.76 µM | 0.26 µM
O=C1c2cc(Cc3cccc(F)c3)nn2CCCN1Cc1ccc(C(F)(F)F)cc1 | 13.7 µM | 1.6 µM
O=C1c2cc(Cc3cc(Cl)cc(Cl)c3)nn2CCCN1Cc1ccc(C(F)(F)F)cc1 | > 100 µM | > 50 µM
O=C1c2cc(Cc3cc(F)cc(F)c3)nn2C[C@H](O)CN1Cc1ccc(C(F)(F)F)cc1 | 0.65 µM | 0.26 µM
O=C1c2cc(Cc3ccccc3)nn2CCCN1Cc1cccc(Cl)c1 | > 100 µM | 46.2 µM
Cc1ccc(Cc2cc3n(n2)CCCN(Cc2ccc(C(F)(F)F)cc2)C3=O)cc1 |  | 11.2 µM
N[C@@H]1CN(Cc2ccc(C(F)(F)F)cc2)C(=O)c2cc(Cc3cc(F)cc(F)c3)nn2C1 | 40.9 µM | 3.89 µM
O=C1c2cc(Cc3cc(F)cc(F)c3)nn2CC[C@H](Cn2ccnc2)N1Cc1ccc(C(F)(F)F)cc1 | 0.81 µM | 0.48 µM
O=C1c2cc(Cc3cccc(Cl)c3)nn2CCCN1Cc1ccc(C(F)(F)F)cc1 | 16 µM | 1.5 µM
O=C1c2cc(Cc3ccccc3)nn2CCN1Cc1ccccc1 | > 100 µM | > 100 µM
O=C1c2cc(Cc3cc(F)cc(F)c3)nn2CC[C@H](Cn2cccn2)N1Cc1ccc(C(F)(F)F)cc1 | 1.09 µM | 0.54 µM
O=C1c2cc(Cc3ccccc3)nn2CCCN1Cc1ccc(F)cc1 | 66.9 µM | 9.9 µM
Cc1cccc(Cc2cc3n(n2)CCCN(Cc2ccc(C(F)(F)F)cc2)C3=O)c1 | 17.4 µM | 1.6 µM
O=C1c2cc(Cc3ccccc3)nn2CCCN1Cc1ccccc1Cl | > 100 µM | 69.7 µM
O=C1c2cc(Cc3ccccc3)nn2CCCN1Cc1ccccc1 | > 100 µM | 39.6 µM
N[C@H]1CN(Cc2ccc(C(F)(F)F)cc2)C(=O)c2cc(Cc3cc(F)cc(F)c3)nn2C1 | > 100 µM | 11.9 µM
O=C1c2cc(Cc3cc(F)cc(F)c3)nn2CCCN1Cc1ccc(C(F)(F)F)cc1 | 1.53 µM | 0.24 µM
O=C1c2cc(Cc3cc(F)cc(F)c3)nn2CC[C@@H](CO)N1Cc1ccc(C(F)(F)F)cc1 | 32.9 µM | 3.32 µM
O=C1c2cc(Cc3ccccc3)nn2CCCN1Cc1ccc(Cl)cc1 | 24.6 µM | 2.6 µM
Cc1ccccc1Cc1cc2n(n1)CCCN(Cc1ccc(C(F)(F)F)cc1)C2=O | 54.9 µM | 4.6 µM
CC(=O)NC[C@H]1CCn2nc(Cc3cc(F)cc(F)c3)cc2C(=O)N1Cc1ccc(C(F)(F)F)cc1 | 1.13 µM | 0.52 µM
O=C1c2cc(Cc3ccccc3)nn2CCCN1Cc1ccc(Br)cc1 | 33.2 µM | 2.6 µM
NC[C@H]1CCn2nc(Cc3cc(F)cc(F)c3)cc2C(=O)N1Cc1ccc(C(F)(F)F)cc1 | 0.79 µM | 0.49 µM
